In article PMC10850145, “Hormonal steroids induce multidrug resistance and stress response genes in Neisseria gonorrhoeae by binding to MtrR” (Nature Communications, 2024):
Where “and” joins values, the source holds several entries; their conditions need not be identical. Equal values may be shown once. Read-outs that look alike come from different tables or passages of the source.

System: mtrC-lacZ expression
Type: cell-based, Neisseria gonorrhoeae
Details: for Plate-6 (Testosterone) Miller units, Mean / Plate-6 (Testosterone) Miller units: left (mtrC) half of sheet; for β-galactosidase activity, Mean / β-galactosidase activity, single replicate: mtrCDE block (c1-c37), ΔmtrR + mtrR R176E in trans
[1] = WT, testosterone 6.25 µM, right block Plate-4
[2] = WT, testosterone 25 µM, right block Plate-4
[3] = WT, testosterone 50 µM, right block Plate-4
[4] = fourth strain (lower plate half, wells 7-12; not named), testosterone 6.25 µM, right block Plate-4
[5] = fourth strain (lower plate half, wells 7-12; not named), testosterone 12.5 µM, right block Plate-4
[6] = mtrC-lacZ, ΔmtrR + mtrR D171A in trans, 6.25 µM hormone, single replicate
[7] = mtrC-lacZ, ΔmtrR + mtrR D171A in trans, 12.5 µM hormone, single replicate
[8] = mtrC-lacZ, ΔmtrR + mtrR D171A in trans, 25 µM hormone, single replicate
[9] = mtrC-lacZ, ΔmtrR + mtrR D171A in trans, 50 µM hormone, single replicate
[10] = mtrC-lacZ, ΔmtrR + mtrR WT in trans, 6.25 µM hormone, single replicate
[11] = mtrC-lacZ, ΔmtrR + mtrR WT in trans, 12.5 µM hormone, single replicate
[12] = mtrC-lacZ, ΔmtrR + mtrR WT in trans, 25 µM hormone, single replicate
[13] = mtrC-lacZ, ΔmtrR + mtrR WT in trans, 50 µM hormone, single replicate
[14] = mtrCDE, fourth strain (lower plate half, wells 7-12; not named), testosterone 1 µM, left block Plate-4
[15] = mtrCDE, fourth strain (lower plate half, wells 7-12; not named), testosterone 10 µM, left block Plate-4
[16] = mtrCDE, fourth strain (lower plate half, wells 7-12; not named), testosterone 25 µM, left block Plate-4
[17] = mtrCDE, fourth strain (lower plate half, wells 7-12; not named), testosterone 50 µM, left block Plate-4
[18] = mtrCDE, fourth strain (lower plate half, wells 7-12; not named), testosterone 100 µM, left block Plate-4

## C[C@]12CC[C@H]3[C@@H](CCC4=CC(=O)CC[C@@]43C)[C@@H]1CC[C@@H]2O [Testosterone, testosterone]
6.25 µM hormone, plate columns 1-6 (WT), mean of plate rows 1-4 (mtrC)
  Miller units, Mean: 141 Miller units
6.25 µM hormone, plate columns 1-6 (WT), plate rows 1-4 (mtrC), single well
  Miller units: 164 Miller units and 134 Miller units and 127 Miller units and 139 Miller units
6.25 µM hormone, plate columns 7-12 (second strain not given), plate rows 1-4 (mtrC), single well
  Miller units: 276 Miller units and 252 Miller units and 246 Miller units and 285 Miller units
6.25 µM hormone, plate columns 7-12 (second strain), mean of plate rows 1-4 (mtrC)
  Miller units, Mean: 265 Miller units
6.25 µM, plate column 3, mean of plate rows 5-8
  Plate-6 (Testosterone) Miller units, Mean: 43 Miller units
6.25 µM, plate column 3, plate rows 5-8, single wells
  Plate-6 (Testosterone) Miller units: 39 Miller units and 46 Miller units and 47 Miller units
6.25 µM, plate column 9, mean of plate rows 5-8
  Plate-6 (Testosterone) Miller units, Mean: 64 Miller units
6.25 µM, single wells
  Plate-6 (Testosterone) Miller units: 55 Miller units and 57 Miller units and 65 Miller units and 80 Miller units
12.5 µM hormone, plate columns 1-6 (WT), mean of plate rows 1-4 (mtrC)
  Miller units, Mean: 166 Miller units
12.5 µM hormone, plate columns 1-6 (WT), plate rows 1-4 (mtrC), single well
  Miller units: 186 Miller units and 164 Miller units and 155 Miller units and 161 Miller units
12.5 µM hormone, plate columns 7-12 (second strain not given), plate rows 1-4 (mtrC), single well
  Miller units: 296 Miller units and 248 Miller units and 237 Miller units and 196 Miller units
12.5 µM hormone, plate columns 7-12 (second strain), mean of plate rows 1-4 (mtrC)
  Miller units, Mean: 244 Miller units
12.5 µM, plate column 4, mean of plate rows 5-8
  Plate-6 (Testosterone) Miller units, Mean: 52 Miller units
12.5 µM, plate column 4, plate rows 5-8, single wells
  Plate-6 (Testosterone) Miller units: 51 Miller units and 50 Miller units and 56 Miller units and 52 Miller units
12.5 µM, plate column 10, mean of plate rows 5-8
  Plate-6 (Testosterone) Miller units, Mean: 62 Miller units
12.5 µM, plate column 10, plate rows 5-8, single wells
  Plate-6 (Testosterone) Miller units: 58 Miller units and 54 Miller units and 63 Miller units and 74 Miller units
25 µM hormone, plate columns 1-6 (WT), mean of plate rows 1-4 (mtrC)
  Miller units, Mean: 178 Miller units
25 µM hormone, plate columns 1-6 (WT), plate rows 1-4 (mtrC), single well
  Miller units: 189 Miller units and 186 Miller units and 165 Miller units and 170 Miller units
25 µM hormone, plate columns 7-12 (second strain not given), plate rows 1-4 (mtrC), single well
  Miller units: 284 Miller units and 276 Miller units and 289 Miller units and 254 Miller units
25 µM hormone, plate columns 7-12 (second strain), mean of plate rows 1-4 (mtrC)
  Miller units, Mean: 276 Miller units
25 µM, plate column 5, mean of plate rows 5-8
  Plate-6 (Testosterone) Miller units, Mean: 63 Miller units
25 µM, plate column 5, plate rows 5-8, single wells
  Plate-6 (Testosterone) Miller units: 68 Miller units and 55 Miller units and 57 Miller units and 70 Miller units
25 µM, plate column 11, mean of plate rows 5-8
  Plate-6 (Testosterone) Miller units, Mean: 65 Miller units
25 µM, plate column 11, plate rows 5-8, single wells
  Plate-6 (Testosterone) Miller units: 64 Miller units and 60 Miller units and 68 Miller units and 67 Miller units
50 µM hormone, plate columns 1-6 (WT), mean of plate rows 1-4 (mtrC)
  Miller units, Mean: 195 Miller units
50 µM hormone, plate columns 1-6 (WT), plate rows 1-4 (mtrC), single well
  Miller units: 222 Miller units and 215 Miller units and 166 Miller units and 177 Miller units
50 µM hormone, plate columns 7-12 (second strain not given), plate rows 1-4 (mtrC), single well
  Miller units: 310 Miller units and 287 Miller units and 255 Miller units and 237 Miller units
50 µM hormone, plate columns 7-12 (second strain), mean of plate rows 1-4 (mtrC)
  Miller units, Mean: 272 Miller units
50 µM, plate column 6, mean of plate rows 5-8
  Plate-6 (Testosterone) Miller units, Mean: 68 Miller units
50 µM, plate column 6, plate rows 5-8, single wells
  Plate-6 (Testosterone) Miller units: 76 Miller units and 71 Miller units and 62 Miller units and 63 Miller units
50 µM, plate column 12, mean of plate rows 5-8
  Plate-6 (Testosterone) Miller units, Mean: 57 Miller units
50 µM, single wells
  Plate-6 (Testosterone) Miller units: 65 Miller units and 49 Miller units and 56 Miller units and 58 Miller units
Mean of plate rows 1-4, plate columns 1-6 (first strain), 6.25 µM hormone
  Miller units, Mean: 69 Miller units
Mean of plate rows 1-4, plate columns 1-6 (first strain), 12.5 µM hormone
  Miller units, Mean: 81 Miller units
Mean of plate rows 1-4, plate columns 1-6 (first strain), 25 µM hormone
  Miller units, Mean: 98 Miller units
Mean of plate rows 1-4, plate columns 1-6 (first strain), 50 µM hormone
  Miller units, Mean: 117 Miller units
Mean of plate rows 1-4, plate columns 7-12 (second strain), 6.25 µM hormone
  Miller units, Mean: 96 Miller units
Mean of plate rows 1-4, plate columns 7-12 (second strain), 12.5 µM hormone
  Miller units, Mean: 102 Miller units
Mean of plate rows 1-4, plate columns 7-12 (second strain), 25 µM hormone
  Miller units, Mean: 112 Miller units
Mean of plate rows 1-4, plate columns 7-12 (second strain), 50 µM hormone
  Miller units, Mean: 119 Miller units
[1]
  Miller units, Mean: 81 Miller units
  Miller units, single replicate: 103 Miller units and 88 Miller units
WT, testosterone 12.5 µM, right block Plate-4
  Miller units, single replicate: 126 Miller units
[2]
  Miller units, Mean: 130 Miller units
  Miller units, single replicate: 144 Miller units and 138 Miller units
[3]
  Miller units, Mean: 134 Miller units
  Miller units, single replicate: 161 Miller units and 150 Miller units
Complemented (MtrR+) strains, increasing hormone
  induction of mtrC expression: could be induced
[4]
  Miller units, Mean: 47 Miller units
  Miller units, single replicate: 46 Miller units
[5]
  Miller units, Mean: 55 Miller units
  Miller units, single replicate: 56 Miller units
Fourth strain (lower plate half, wells 7-12; not named), testosterone 25 µM, right block Plate-4
  Miller units, Mean: 85 Miller units
Fourth strain (lower plate half, wells 7-12; not named), testosterone 50 µM, right block Plate-4
  Miller units, Mean: 79 Miller units
Loss of MtrR or MtrR-D171A strain
  induction of mtrC expression: abrogated
mtrC-lacZ, WT, 6.25 µM hormone
  Miller units, Mean: 141 Miller units
mtrC-lacZ, WT, 12.5 µM hormone
  Miller units, Mean: 166 Miller units
mtrC-lacZ, WT, 25 µM hormone
  Miller units, Mean: 178 Miller units
mtrC-lacZ, WT, 50 µM hormone
  Miller units, Mean: 195 Miller units
[6]
  Miller units: 162 Miller units
  β-galactosidase activity (Miller units): 162 Miller units and 167 Miller units and 161 Miller units and 191 Miller units
[7]
  Miller units: 176 Miller units
  β-galactosidase activity (Miller units): 176 Miller units and 177 Miller units and 161 Miller units and 186 Miller units
[8]
  Miller units: 185 Miller units
  β-galactosidase activity (Miller units): 185 Miller units and 179 Miller units and 168 Miller units and 147 Miller units
[9]
  Miller units: 166 Miller units
  β-galactosidase activity (Miller units): 166 Miller units and 158 Miller units and 156 Miller units
[10]
  Miller units: 108 Miller units and 127 Miller units and 114 Miller units and 153 Miller units
  β-galactosidase activity (Miller units): 108 Miller units and 127 Miller units and 114 Miller units and 153 Miller units
[11]
  Miller units: 125 Miller units and 124 Miller units and 120 Miller units and 149 Miller units
  β-galactosidase activity (Miller units): 125 Miller units and 124 Miller units and 120 Miller units and 149 Miller units
[12]
  Miller units: 133 Miller units and 137 Miller units and 127 Miller units
  β-galactosidase activity (Miller units): 133 Miller units and 137 Miller units and 127 Miller units
[13]
  Miller units: 146 Miller units and 140 Miller units and 175 Miller units
  β-galactosidase activity (Miller units): 146 Miller units and 140 Miller units and 175 Miller units
mtrC-lacZ, ΔmtrR strain, 6.25 µM hormone, single replicate
  β-galactosidase activity (Miller units): 246 Miller units
mtrC-lacZ, ΔmtrR strain, 12.5 µM hormone, single replicate
  β-galactosidase activity (Miller units): 237 Miller units
mtrC-lacZ, ΔmtrR strain, 25 µM hormone, single replicate
  β-galactosidase activity (Miller units): 289 Miller units
mtrC-lacZ, ΔmtrR strain, 50 µM hormone, single replicate
  β-galactosidase activity (Miller units): 255 Miller units
mtrC-lacZ, ΔmtrR, 6.25 µM hormone
  Miller units, Mean: 265 Miller units
mtrC-lacZ, ΔmtrR, 12.5 µM hormone
  Miller units, Mean: 244 Miller units
mtrC-lacZ, ΔmtrR, 25 µM hormone
  Miller units, Mean: 276 Miller units
mtrC-lacZ, ΔmtrR, 50 µM hormone
  Miller units, Mean: 272 Miller units
1 µM
  β-galactosidase activity, Mean: 178 Miller units
  β-galactosidase activity, single replicate: 184 Miller units and 192 Miller units and 127 Miller units and 209 Miller units
10 µM
  β-galactosidase activity, Mean: 206 Miller units
  β-galactosidase activity, single replicate: 290 Miller units and 186 Miller units and 155 Miller units and 194 Miller units
25 µM
  β-galactosidase activity, single replicate: 208 Miller units and 213 Miller units and 178 Miller units and 198 Miller units
50 µM
  β-galactosidase activity, Mean: 224 Miller units
  β-galactosidase activity, single replicate: 262 Miller units and 219 Miller units and 198 Miller units and 217 Miller units
100 µM
  β-galactosidase activity, Mean: 238 Miller units
  β-galactosidase activity, single replicate: 255 Miller units and 223 Miller units and 213 Miller units and 260 Miller units
mtrCDE, WT, testosterone 1 µM, left block Plate-4
  Miller units, Mean: 138 Miller units
mtrCDE, WT, testosterone 10 µM, left block Plate-4
  Miller units, Mean: 235 Miller units
mtrCDE, WT, testosterone 25 µM, left block Plate-4
  Miller units, Mean: 264 Miller units
mtrCDE, WT, testosterone 50 µM, left block Plate-4
  Miller units, Mean: 229 Miller units
mtrCDE, WT, testosterone 100 µM, left block Plate-4
  Miller units, Mean: 248 Miller units
[14]
  Miller units, Mean: 157 Miller units
  Miller units, single replicate: 182 Miller units
[15]
  Miller units, Mean: 190 Miller units
  Miller units, single replicate: 196 Miller units
[16]
  Miller units, Mean: 192 Miller units
  Miller units, single replicate: 225 Miller units and 177 Miller units
[17]
  Miller units, Mean: 201 Miller units
  Miller units, single replicate: 192 Miller units and 186 Miller units
[18]
  Miller units, Mean: 240 Miller units
  Miller units, single replicate: 256 Miller units and 229 Miller units
mtrCDE, third strain (lower plate half, wells 1-6; not named), testosterone 1 µM, left block Plate-4
  Miller units, Mean: 107 Miller units
mtrCDE, third strain (lower plate half, wells 1-6; not named), testosterone 10 µM, left block Plate-4
  Miller units, Mean: 177 Miller units
mtrCDE, third strain (lower plate half, wells 1-6; not named), testosterone 25 µM, left block Plate-4
  Miller units, Mean: 181 Miller units
mtrCDE, third strain (lower plate half, wells 1-6; not named), testosterone 50 µM, left block Plate-4
  Miller units, Mean: 213 Miller units
mtrCDE, third strain (lower plate half, wells 1-6; not named), testosterone 100 µM, left block Plate-4
  Miller units, Mean: 227 Miller units
mtrCDE, ΔmtrR, testosterone 1 µM, left block Plate-4
  Miller units, Mean: 334 Miller units
mtrCDE, ΔmtrR, testosterone 10 µM, left block Plate-4
  Miller units, Mean: 358 Miller units
